Assay results from PubChem BioAssay AID1259407 (Chemical Carcinogenesis Research Information System (CCRIS), 2018).
Calls of active or inactive are those of the source. How the calls were made is not given here.

Tested on: CCRIS mutagenicity, Ames/micronucleus/aberration tests
Assay: CCRIS mutagenicity studies
[1] = Test System: AMES SALMONELLA TYPHIMURIUM, Strain/Indicator: TA98, Metabolic Activation: HAMSTER, LIVER, S-9, AROCLOR 1254 (30%), Method: PREINCUBATION
[2] = Test System: AMES SALMONELLA TYPHIMURIUM, Strain/Indicator: TA98, Metabolic Activation: NONE, Method: PREINCUBATION
[3] = Test System: AMES SALMONELLA TYPHIMURIUM, Strain/Indicator: TA98, Metabolic Activation: RAT, LIVER, S-9, AROCLOR 1254 (30%), Method: PREINCUBATION
[4] = Test System: AMES SALMONELLA TYPHIMURIUM, Strain/Indicator: TA100, Metabolic Activation: HAMSTER, LIVER, S-9, AROCLOR 1254 (30%), Method: PREINCUBATION
[5] = Test System: AMES SALMONELLA TYPHIMURIUM, Strain/Indicator: TA100, Metabolic Activation: NONE, Method: PREINCUBATION
[6] = Test System: AMES SALMONELLA TYPHIMURIUM, Strain/Indicator: TA100, Metabolic Activation: RAT, LIVER, S-9, AROCLOR 1254 (30%), Method: PREINCUBATION
[7] = Test System: AMES SALMONELLA TYPHIMURIUM, Strain/Indicator: TA98, Metabolic Activation: NONE, Method: STANDARD PLATE
[8] = Test System: AMES SALMONELLA TYPHIMURIUM, Strain/Indicator: TA1537, Metabolic Activation: NONE, Method: PREINCUBATION
[9] = Test System: AMES SALMONELLA TYPHIMURIUM, Strain/Indicator: TA98, Metabolic Activation: RAT, LIVER, S-9, AROCLOR 1254, Method: STANDARD PLATE
[10] = Test System: AMES SALMONELLA TYPHIMURIUM, Strain/Indicator: TA100, Metabolic Activation: NONE, Method: STANDARD PLATE
[11] = Test System: AMES SALMONELLA TYPHIMURIUM, Strain/Indicator: TA100, Metabolic Activation: RAT, LIVER, S-9, AROCLOR 1254, Method: STANDARD PLATE

Cc1ccc2cccnc2c1
mutagenic call [1]: active; positive
mutagenic call [2]: inactive; negative
mutagenic call [3]: inactive; negative
mutagenic call [4]: active; positive
mutagenic call [5]: inactive; negative
mutagenic call [6]: active; positive
mutagenic call (Test System: AMES SALMONELLA TYPHIMURIUM, Strain/Indicator: TA100, Metabolic Activation: RAT, LIVER, S-9, PHENOBARBITAL AND 5,6-BENZOFLAVONE, Method: PREINCUBATION): active; positive
mutagenic call (Test System: AMES SALMONELLA TYPHIMURIUM, Strain/Indicator: TA100, Metabolic Activation: RAT, LIVER, S-9, PHENOBARBITAL AND 5,6-NAPHTHOFLAVONE, Method: PREINCUBATION): active; positive
mutagenic call (Test System: AMES SALMONELLA TYPHIMURIUM, Strain/Indicator: TA100, Metabolic Activation: RAT, LIVER, S-9, Method: PREINCUBATION): active; positive

O=[N+]([O-])c1cc2c3c(cccc3c1)-c1ccccc1-2
mutagenic call (Test System: AMES SALMONELLA TYPHIMURIUM, Strain/Indicator: TA98(1,8-DNP6), Metabolic Activation: NONE, Method: STANDARD PLATE): inactive; negative
mutagenic call (Test System: AMES SALMONELLA TYPHIMURIUM, Strain/Indicator: TA98(NR), Metabolic Activation: NONE, Method: STANDARD PLATE): inactive; negative
mutagenic call [7]: active; positive
mutagenic call (Test System: AMES SALMONELLA TYPHIMURIUM, Strain/Indicator: TA7001, Metabolic Activation: NONE, Method: PREINCUBATION): inactive; negative
mutagenic call (Test System: AMES SALMONELLA TYPHIMURIUM, Strain/Indicator: TA7002, Metabolic Activation: NONE, Method: PREINCUBATION): active; positive
mutagenic call (Test System: AMES SALMONELLA TYPHIMURIUM, Strain/Indicator: TA7003, Metabolic Activation: NONE, Method: PREINCUBATION): inactive; negative
mutagenic call (Test System: AMES SALMONELLA TYPHIMURIUM, Strain/Indicator: TA7004, Metabolic Activation: NONE, Method: PREINCUBATION): active; positive
mutagenic call (Test System: AMES SALMONELLA TYPHIMURIUM, Strain/Indicator: TA7005, Metabolic Activation: NONE, Method: PREINCUBATION): active; positive
mutagenic call (Test System: AMES SALMONELLA TYPHIMURIUM, Strain/Indicator: TA7006, Metabolic Activation: NONE, Method: PREINCUBATION): active; positive

c1ccc(-c2ccnc3c2ccc2c(-c4ccccc4)ccnc23)cc1
mutagenic call (Test System: Mouse lymphoma, Strain/Indicator: L5178Y (tk+/tk-), Metabolic Activation: None, Method: Suspension/plate): active; positive
mutagenic call (Test System: Mouse lymphoma, Strain/Indicator: L5178Y (tk+/tk-), Metabolic Activation: Rat, Liver, S-9, Aroclor 1254, Method: Suspension/plate): equivocal

Cc1ccc2nc3ccc(C)cc3c(N)c2c1
mutagenic call [8]: active; positive

COc1cc(C=O)ccc1O
mutagenic call [7]: inactive; negative
mutagenic call [9]: inactive; negative
mutagenic call [10]: inactive; negative
mutagenic call [11]: inactive; negative
mutagenic call (Test System: AMES SALMONELLA TYPHIMURIUM, Strain/Indicator: TA1535, Metabolic Activation: RAT, LIVER, S-9, AROCLOR 1254, Method: STANDARD PLATE): inactive; negative
mutagenic call (Test System: E. COLI, Strain/Indicator: CM561 LEXA, Metabolic Activation: NONE, Method: STANDARD PLATE): inactive; negative
mutagenic call (Test System: E. COLI, Strain/Indicator: CM611 UVRA/LEXA, Metabolic Activation: NONE, Method: STANDARD PLATE): inactive; negative
mutagenic call (Test System: E. COLI, Strain/Indicator: WP2 UVRA, Metabolic Activation: NONE, Method: STANDARD PLATE): inactive; negative

C1CC2(CCO1)CO2
mutagenic call (Test System: AMES SALMONELLA TYPHIMURIUM, Strain/Indicator: TA100, Metabolic Activation: STANDARD PLATE): active; positive

COc1c(CO)c(O)cc2c1C(=O)c1ccccc1C2=O
mutagenic call [2]: inactive; negative
mutagenic call (Test System: AMES SALMONELLA TYPHIMURIUM, Strain/Indicator: TA98, Metabolic Activation: RAT, LIVER, S-9, PCB, Method: PREINCUBATION): inactive; negative
mutagenic call [5]: active; positive
mutagenic call (Test System: AMES SALMONELLA TYPHIMURIUM, Strain/Indicator: TA100, Metabolic Activation: RAT, LIVER, S-9, PCB, Method: PREINCUBATION): active; positive

C1=c2ccccc2=C2Cc3ccccc3C3=C4OC4=C1C32 (stereo not given)
mutagenic call [7]: active; positive
mutagenic call [9]: active; positive

CC(C)CC(=O)Nc1snc2ccc(Cl)cc12
mutagenic call [10]: inactive; negative
mutagenic call (Test System: AMES SALMONELLA TYPHIMURIUM, Strain/Indicator: TA100, Metabolic Activation: S-9, Method: STANDARD PLATE): inactive; negative
mutagenic call (Test System: AMES SALMONELLA TYPHIMURIUM, Strain/Indicator: TA1537, Metabolic Activation: NONE, Method: STANDARD PLATE): inactive; negative
mutagenic call (Test System: AMES SALMONELLA TYPHIMURIUM, Strain/Indicator: TA1537, Metabolic Activation: S-9, Method: STANDARD PLATE): inactive; negative

C=CCOC(=O)C=C
mutagenic call (Test System: AMES SALMONELLA TYPHIMURIUM, Strain/Indicator: TA97, Metabolic Activation: HAMSTER, LIVER, S-9, AROCLOR 1254 (10 OR 30%), Method: PREINCUBATION): inactive; negative
mutagenic call (Test System: AMES SALMONELLA TYPHIMURIUM, Strain/Indicator: TA97, Metabolic Activation: NONE, Method: PREINCUBATION): inactive; negative
mutagenic call (Test System: AMES SALMONELLA TYPHIMURIUM, Strain/Indicator: TA97, Metabolic Activation: RAT, LIVER, S-9, AROCLOR 1254 (10 OR 30%), Method: PREINCUBATION): inactive; negative
mutagenic call (Test System: AMES SALMONELLA TYPHIMURIUM, Strain/Indicator: TA98, Metabolic Activation: HAMSTER, LIVER, S-9, AROCLOR 1254 (10%), Method: PREINCUBATION): inactive; negative
mutagenic call [1]: inactive; negative
mutagenic call [2]: inactive; negative
mutagenic call (Test System: AMES SALMONELLA TYPHIMURIUM, Strain/Indicator: TA98, Metabolic Activation: RAT, LIVER, S-9, AROCLOR 1254 (10%), Method: PREINCUBATION): inactive; negative
mutagenic call [3]: inactive; negative
mutagenic call (Test System: AMES SALMONELLA TYPHIMURIUM, Strain/Indicator: TA100, Metabolic Activation: HAMSTER, LIVER, S-9, AROCLOR 1254 (10%), Method: PREINCUBATION): inactive; negative
mutagenic call [4]: inactive; negative
mutagenic call [5]: inactive; negative
mutagenic call (Test System: AMES SALMONELLA TYPHIMURIUM, Strain/Indicator: TA100, Metabolic Activation: RAT, LIVER, S-9, AROCLOR 1254 (10%), Method: PREINCUBATION): inactive; negative
mutagenic call [6]: inactive; negative
mutagenic call (Test System: AMES SALMONELLA TYPHIMURIUM, Strain/Indicator: TA1535, Metabolic Activation: HAMSTER, LIVER, S-9, AROCLOR 1254 (10%), Method: PREINCUBATION): inactive; negative
mutagenic call (Test System: AMES SALMONELLA TYPHIMURIUM, Strain/Indicator: TA1535, Metabolic Activation: HAMSTER, LIVER, S-9, AROCLOR 1254 (30%), Method: PREINCUBATION): inactive; negative
mutagenic call (Test System: AMES SALMONELLA TYPHIMURIUM, Strain/Indicator: TA1535, Metabolic Activation: NONE, Method: PREINCUBATION): inactive; negative
mutagenic call (Test System: AMES SALMONELLA TYPHIMURIUM, Strain/Indicator: TA1535, Metabolic Activation: RAT, LIVER, S-9, AROCLOR 1254 (10%), Method: PREINCUBATION): inactive; negative
mutagenic call (Test System: AMES SALMONELLA TYPHIMURIUM, Strain/Indicator: TA1535, Metabolic Activation: RAT, LIVER, S-9, AROCLOR 1254 (30%), Method: PREINCUBATION): inactive; negative
mutagenic call (Test System: AMES SALMONELLA TYPHIMURIUM, Strain/Indicator: TA1537, Metabolic Activation: HAMSTER, LIVER, S-9, AROCLOR 1254 (10%), Method: PREINCUBATION): inactive; negative
mutagenic call [8]: inactive; negative
mutagenic call (Test System: AMES SALMONELLA TYPHIMURIUM, Strain/Indicator: TA1537, Metabolic Activation: RAT, LIVER, S-9, AROCLOR 1254 (10%), Method: PREINCUBATION): inactive; negative

O=C(/C=C/c1ccc(O)cc1)c1ccccc1
mutagenic call [7]: inactive; negative
mutagenic call [9]: inactive; negative
mutagenic call [10]: inactive; negative
mutagenic call [11]: inactive; negative
